# Measurements taken from patent publication US20020052408A1, “Methods for protection of stratified squamous epithelium against injury by noxious substances and novel agents for use therefor” (priority 2000, published 2002).
# Tests used:
# [1] = system: rabbit esophageal epithelium; assay: Ussing chamber method for assessing esophageal epithelial protection against acid injury (60 mM HCl, pH 1.6, decline in electrical resistance R); format: cell-based; conditions: for protection against acid injury after brief luminal exposure: 1 min exposure to 4 mM agent, multiple washouts over 4 hours, FIG. 5; for lowest protective dose: pH 1.6, 1 hour; for protective activity, Resistance Index (RI)=[(Ragent/Rcontrol)-1], RI >0.2 considered significant: 2, 4 and/or 8 mM for 15 min, 30 min and/or >30 min before 60 mM HCl pH 1.6 for 1 hour, N=1 tissue/dose, FIG. 9; for protective effect, single exposure: single 1 min exposure
# Excerpt: Previously, a test system was developed in the Ussing chamber to identify and characterize agents with cytoprotective effects against acid injury to the tissue. Briefly, the esophageal epithelium is mounted in the Ussing chamber so that acid (or acid-pepsin) could be added to the luminal bath while monitoring changes in electrical resistance (R). The changes in R are an effective means to identify damage by acid or acid-pepsin since damage is heralded by an increase in paracellular permeability and this reflected by a decline in R. In effect, the ability of an agent or compound to prevent the acid-induced decline in R without altering luminal pH (which excludes protection being mediated by acid buffering or neutralization) is evidence for a cytoprotective effect, i.e. protection directly exerted by the agent or compound on the epithelium. Further, we previously established that the ability of an agent or compound to prevent the acid-induced decline in R in this Ussing chamber model of acid injury was an accurate predictor, and therefore surrogate marker, of its ability to protect rabbit esophageal epithelium against acid injury in vivo (U.S. Pat. Nos. 5,374,537 and 5,189,056).
# (§1) New Zealand white rabbits weighing between 8-9 lbs are sacrificed by administering an intravenous overdose of phenobarbital (60 mg/mL). The esophagus is excised, opened, and pinned mucosal surface down in a paraffin tray containing ice-Cold oxygenated normal Ringer's solution. The submucosa is grasped with hemostats, lifted up, and dissected free of the underlying mucosa with a scalpel. This process yields a sheet of tissue consisting of stratified squamous epithelium and a small amount of underlying connective tissue. From this tissue, four sections are cut and mounted as flat sheets between Lucite half-Chambers with an aperture of 1.13 cm^2 for measurements of potential difference (PD), short circuit current (Isc) and, from these values, calculation of transmucosal electrical resistance (R). Tissues are bathed with normal Ringer solution composed of the following (in mmol/L): Na 140; Cl 119.8; K 5.2; HCO3 25; Ca 1.2; Mg 1.2; HPO4 2.4; H2PO4 0.4; and 268 mOsm/kg water, with pH 7.5 when gassed with 95% O2/5% CO2 at 37° C. Mucosal and serosal solutions are connected to calomel and Ag—AgCl electrodes with Ringer's-agar bridges for measurements of PD and automatic short-Circuiting of the tissue with a voltage clamp (World Precision Instruments Inc., Sarasota, Fla.). Tissues are monitored continuously in the open-circuit state except for 5-10 second periods when the Isc is read. Electrical resistance (R) was calculated using Ohm's Law from the open-circuit PD and Isc.
# To test the protective effect of an agent against acid injury to esophageal epithelium, 45 minutes after mounting (equilibration period), tissues paired by R had for one of the pair varying amounts of an agent added to the luminal bath while the other part of the pair received vehicle (normal Ringer solution) as control. After varying periods of exposure to the agent, 60 mM HCl was added to the luminal (mucosal) solution to reduce pH to 1.6; the pH was monitored and maintained throughout the 1 hr of exposure for all tissues to ensure uniform risk of injury. This negated any protective effect as being due to buffering by the agent. In some experiments the power of the protective effect of an agent was determined after varying periods of luminal exposure by washout prior to acid exposure, i.e. replacement of the luminal bath containing agent with normal Ringer Solution that contained only vehicle. R was then monitored before and during acidification with 60 mM HCl and the results for agent and controls presented as percent decline in R from pre-acidification values. […]
# [2] = system: rabbit esophageal epithelium; assay: In vivo delivery of agent in drinking water, then Ussing chamber acid injury test (60 mM HCl, pH 1.6); conditions: for protective effect after in vivo delivery in drinking water: rabbit, acid on day 5
# Method: as §1
# (§2) New Zealand white rabbits weighing between 8-9 lbs were given 25 ml of water containing test agent or water alone (control) to drink once each morning on 4 consecutive days. Following consumption of the 25 ml of water, the rabbits had their normal water source restored and they ate and drank normally for the remainder of each day. Twenty-four hours after the last dose, the rabbits were sacrificed by administering an intravenous overdose of phenobarbital (60 mg/mL). The esophagus was excised and processed as above to test its ability to resist acid injury upon exposure to 60 mM HCl , pH 1.6, for 1 hr. Three sections of rabbit esophageal epithelium that had been exposed to test agent and three sections exposed to water alone (control) were mounted, equilibrated and then simultaneously exposed to acid on the same day without the operator being aware of which were treated and which were control sections of epithelium. Initial R values in all experiments were similar preacidification. […] Significance was taken as a difference in values of p<0.05.
# [3] = system: rabbit esophageal epithelium; assay: In vivo delivery of agent in drinking water, then Ussing chamber acid-pepsin injury test (60 mM HCl, pH 1.6, 1 mg/ml pepsin); conditions: FIG. 12
# Method: as §2
# FIG. 12 is a graph showing the protective effect against an acid-pepsin mixture after in vivo delivery of CDDD-1193 in drinking water. A rabbit spontaneously drank 25 ml of water containing 0.6 mg (40 μM) or 0.06 mg (4 μM) CDDD-1193 once-a-day for 4 consecutive days or water alone. On day 5, the rabbits were sacrificed and three sections of esophageal epithelium mounted in Ussing chambers from each rabbit. After equilibration in Ringer solution, all tissues were acidified by luminal addition of 60 mM HCl , pH 1.6, containing 1 mg/ml pepsin, for 1 hour. Electrical resistance, R, was monitored and plotted as percent initial R (%) at the end of 1 hour of acid-pepsin exposure. […] N=3 tissues; * p<0.05 compared to controls.
# [4] = then 60 mM HCl pH 1.6 for 1 hour
# [5] = agent in luminal bath 30 min before and continuously during 60 mM HCl, R as % of initial R, FIG. 1, 2
smiles,measurement,setting,value
"O=S(=O)(O)OC[C@H]1O[C@@](COS(=O)(=O)O)(O[C@H]2O[C@H](COS(=O)(=O)O)[C@@H](OS(=O)(=O)O)[C@H](OS(=O)(=O)O)[C@H]2OS(=O)(=O)O)[C@@H](OS(=O)(=O)O)[C@@H]1OS(=O)(=O)O [SOS, sucrose octasulfate, reference compound]",protection against acid injury after brief luminal exposure,[1]; [4],retain significant protection
same,lowest protective dose,[1]; [5],1 mM
"O=S(=O)(O)OC[C@@H](OS(=O)(=O)O)[C@@H](Oc1ccccc1)c1ccccc1.[Na].[Na] [CDDD-1187, (2R, 3S)-3-Phenoxy-3-phenylpropane-1,2-disulfate, disodium salt]","protective activity, Resistance Index (RI)=[(Ragent/Rcontrol)-1], RI >0.2 considered significant",[1],may have significant protective activity
"O=S(=O)(O)OCC(OS(=O)(=O)O)C(Oc1ccccc1)c1ccc(N=C=S)cc1 [CDDD-1192, Disodium (2S, 3R)-3-(4-isothiocyanatophenyl)-3-phenoxypropane-1,2-disulfate]",protection against acid injury after brief luminal exposure,[1]; [4],retain significant protection
same,lowest protective dose,"[1]; agent in luminal bath 30 min before and during 60 mM HCl, FIG. 3",0.004 mM
"O=S(=O)([O-])OCC(Oc1ccc(Cl)cc1S(=O)(=O)[O-])c1ccccc1.[Na+].[Na+] (centres unmarked) [CDDD-1188, 2-(4-Chloro-2-sulfophenoxy)-2-phenylethanesulfate, disodium salt]","protective activity, Resistance Index (RI)=[(Ragent/Rcontrol)-1], RI >0.2 considered significant",[1],may have significant protective activity
"CC(=O)Nc1ccc(C=Cc2ccc(N=C=S)cc2S(=O)(=O)O)c(S(=O)(=O)O)c1 [SITS, 4-acetamido-4′-isothiocyanatostilbene-2-2′-disulfonic acid, reference compound]",protective effect after in vivo delivery in drinking water,"[2]; 4 mM (50 mg in 25 ml water) once-a-day for 4 days, FIG. 11",significantly protective
same,duration of protective effects after the last dose,"[2]; 4 mM in drinking water once-a-day for 4 days, FIG. 11",at least 24 hrs
same,protection against acid injury after brief luminal exposure,[1]; [4],retain significant protection
same,lowest protective dose,[1]; [5],0.1 mM
"O=S(=O)(O)OC[C@H](OS(=O)(=O)O)[C@H](Oc1ccc(N=C=S)cc1)c1ccc(N=C=S)cc1.[Na].[Na] [CDDD-1193, Disodium (2S, 3R)-3-(4-isothiocyanophenoxy)-3-(4-isothiocyanatophenyl)propane-1,2-disulfate]",protective effect against acid-pepsin after in vivo delivery in drinking water,[3]; 4 μM (0.06 mg in 25 ml water) once-a-day for 4 days,significantly protective
same,protective effect against acid-pepsin after in vivo delivery in drinking water,[3]; 40 μM (0.6 mg in 25 ml water) once-a-day for 4 days,significantly protective
same,duration of protective effect against acid-pepsin after the last dose,[3]; 40 μM and 4 μM in drinking water once-a-day for 4 days,at least 24 hours
same,protective effect after in vivo delivery in drinking water,"[2]; 4 μM (0.06 mg in 25 ml water) once-a-day for 4 days, FIG. 10B",significantly protective
same,duration of protective effects after the last dose,"[2]; 4 μM in drinking water once-a-day for 4 days, FIG. 10B",at least 24 hrs
same,protective effect after in vivo delivery in drinking water,"[2]; 40 μM (0.6 mg in 25 ml water) once-a-day for 4 days, FIG. 10A",significantly protective
same,duration of protective effects after the last dose,"[2]; 40 μM in drinking water once-a-day for 4 days, FIG. 10A",at least 24 hrs
same,"protective effect, repeated exposures","[1]; 400 nM, 1 min every 5 min times ten exposures, then 60 mM HCl pH 1.6 for 1 hour, FIG. 7",protective
same,"protective effect, single exposure","[1]; 400 nM, then 60 mM HCl pH 1.6 for 1 hour, FIG. 7",little protection
same,"protective effect, repeated exposures","[1]; 1 μM, 1 min every 5 min times 5 or ten exposures, then 60 mM HCl pH 1.6 for 1 hour, FIG. 8",cumulative with repeated exposures
same,"protective effect, single exposure","[1]; 1 μM, then 60 mM HCl pH 1.6 for 1 hour, FIG. 8",modestly protective
same,protection against acid injury after brief luminal exposure,[1]; [4],retain significant protection
same,protective effect after brief luminal exposure,"[1]; 1 min exposure to 4 mM, multiple washouts over 8 hours, then 60 mM HCl pH 1.6 for 1 hour, FIG. 6",substantial
same,persistence of protective effect,"[1]; 1 min exposure to 4 mM, repeated washes before 60 mM HCl pH 1.6, FIG. 6",8 h
same,lowest protective dose,"[1]; agent in luminal bath 30 min before and during 60 mM HCl, FIG. 4",4e-05 mM
"O=S(=O)([O-])OCC(Oc1ccccc1)c1ccccc1.[Na+] (centres unmarked) [CDDD-1185, 2-Phenoxy-2-phenylethanesulfate, sodium salt]","protective activity, Resistance Index (RI)=[(Ragent/Rcontrol)-1], RI >0.2 considered significant",[1],may have significant protective activity
